US10947271B2, “Antibacterial agents” (THE UNIVERSITY OF QUEENSLAND, priority 2014, dated 2021)

What was measured:
Type in all cases: cell-based
Conditions in all cases: 24 h incubation, visual reading
[1] = tested on: Staphylococcus aureus MRSA ATCC 43300; assay: MIC assay, S. aureus MRSA ATCC 43300
Protocol: (§1) Antimicrobial activity of compounds was tested against a number of bacterial strains, including Staphylococcus aureus (MRSA ATCC 43300, GISA NRS17, VISA NRS1, MRSA clinical isolate, daptomycin resistant clinical isolate), Streptococcus pneumoniae (MDR ATCC 700677), Enterococcus faecalis (VanA clinical isolate) and Enterococcus faecium (MDR Van A ATCC 51559).
(§2) All compounds were prepared to 160 μg/ml solution in water from a stock solution of 1 mM concentration.
(§3) The compounds, along with standard antibiotics were serially diluted twofold across the wells of 96-well non-binding surface plates (NBS, Corning). Standards ranged from 64 μg/ml to 0.03 μg/ml and compounds from 8 μg/ml to 0.003 μg/ml with final volumes of 50 μL per well. Gram positive bacteria were cultured in Muller Hinton broth (MHB) (Bacto laboratories, Cat. no. 211443) at 37° C. overnight. A sample of each culture was then diluted 40-fold in fresh MHB broth and incubated at 37° C. for 2-3 hrs. The resultant mid-log phase cultures were diluted to the final concentration of 5×10e5 CFU/mL, then 50 μL was added to each well of the compound-containing 96-well plates. All the plates were covered and incubated at 37° C. for 24 h. MICs were the lowest concentration showing no visible growth.
(§4) MICs were determined visually at 24 hr incubation and the MIC was defined as the lowest concentration with which no growth was visible after incubation. Both MIC and MBC were determined by visual inspection only.

[2] = tested on: Streptococcus pneumoniae MDR ATCC 700677; assay: MIC assay, S. pneumoniae MDR ATCC 700677
Protocol: as §1, §2, §3, §4

[3] = tested on: Enterococcus faecium MDR Van A ATCC 51559; assay: MIC assay, E. faecium MDR Van A ATCC 51559
Protocol: as §1, §2, §3, §4

Row | Compound | Minimum Inhibitory Concentration (MIC) Staph. aureus ATCC43300 [1] | Minimum Inhibitory Concentration (MIC) S. pneumoniae ATCC 700677 [2] | Minimum Inhibitory Concentration (MIC) E. faecium ATCC51559 [3]
1 | CNC(CC(C)C)C(=O)NC1C(=O)NC(CC(N)=O)C(=O)NC2C(=O)NC3C(=O)NC(C(=O)NC(C(=O)NCCCCC(NC(=O)C(CCCCN)NC(=O)C(CCCCN)NC(=O)C(CCCCN)NC(=O)C(CCCCNC(=O)c4ccc(Oc5ccccc5)cc4)NC(=O)c4ccc(Oc5ccccc5)cc4)C(=O)O)c4cc(O)cc(O)c4-c4cc3ccc4O)C(O)c3ccc(c(Cl)c3)Oc3cc2cc(c3OC2OC(CO)C(O)C(O)C2OC2CC(C)(N)C(O)C(C)O2)Oc2ccc(cc2Cl)C1O (stereo not drawn) [MCC_000230] | xxxxx (xxxxx = <0.01) | xxxx (xxxx = 0.01-<0.1) | xxx (xxx = 0.1-<1)
2 | CCCCCCCCCCC(=O)NCCCC[C@H](NC(=O)CCCCCCCCCC)C(=O)N[C@@H](CCCCN)C(=O)N[C@@H](CCCCN)C(=O)N[C@@H](CCCCNC(=O)[C@H]1NC(=O)[C@H]2NC(=O)[C@H](NC(=O)[C@@H]3NC(=O)[C@H](CC(N)=O)NC(=O)[C@H](NC(=O)[C@@H](CC(C)C)NC)[C@H](O)c4ccc(c(Cl)c4)Oc4cc3cc(c4O[C@@H]3O[C@H](CO)[C@@H](O)[C@H](O)[C@H]3O[C@H]3C[C@](C)(N)[C@H](O)[C@H](C)O3)Oc3ccc(cc3Cl)[C@H]2O)c2ccc(O)c(c2)-c2c(O)cc(O)cc21)C(=O)O [MCC_000231] | xx (xx = 1-4) | xx (xx = 1-4) | x (x = >4)
3 | CCCCCCCCCCC(=O)N[C@@H](CCCCN)C(=O)N[C@@H](CCCCN)C(=O)N[C@@H](CCCCNC(=O)[C@H]1NC(=O)[C@H]2NC(=O)[C@H](NC(=O)[C@@H]3NC(=O)[C@H](CC(N)=O)NC(=O)[C@H](NC(=O)[C@@H](CC(C)C)NC)[C@H](O)c4ccc(c(Cl)c4)Oc4cc3cc(c4O[C@@H]3O[C@H](CO)[C@@H](O)[C@H](O)[C@H]3O[C@H]3C[C@](C)(N)[C@H](O)[C@H](C)O3)Oc3ccc(cc3Cl)[C@H]2O)c2ccc(O)c(c2)-c2c(O)cc(O)cc21)C(=O)NC [MCC_000292] | xxxx (xxxx = 0.01-<0.1) | xxxx (xxxx = 0.01-<0.1) | xx (xx = 1-4)
4 | CCCCCCCCCCC(=O)N[C@@H](CCCCN)C(=O)N[C@@H](CCCCN)C(=O)N[C@@H](CCCCN)C(=O)N[C@@H](CCCCNC(=O)[C@H]1NC(=O)[C@H]2NC(=O)[C@H](NC(=O)[C@@H]3NC(=O)[C@H](CC(N)=O)NC(=O)[C@H](NC(=O)[C@@H](CC(C)C)NC)[C@H](O)c4ccc(c(Cl)c4)Oc4cc3cc(c4O[C@@H]3O[C@H](CO)[C@@H](O)[C@H](O)[C@H]3O[C@H]3C[C@](C)(N)[C@H](O)[C@H](C)O3)Oc3ccc(cc3Cl)[C@H]2O)c2ccc(O)c(c2)-c2c(O)cc(O)cc21)C(=O)NC [MCC_000309] | xxxxx (xxxxx = <0.01) | xxxxx (xxxxx = <0.01) | xxx (xxx = 0.1-<1)
5 | CNC(=O)C(CCCCNC(=O)C1NC(=O)C2NC(=O)C(NC(=O)C3NC(=O)C(CC(N)=O)NC(=O)C(NC(=O)C(CC(C)C)NC)C(O)c4ccc(c(Cl)c4)Oc4cc3cc(c4OC3OC(CO)C(O)C(O)C3OC3CC(C)(N)C(O)C(C)O3)Oc3ccc(cc3Cl)C2O)c2ccc(O)c(c2)-c2c(O)cc(O)cc21)NC(=O)C(CCCCN)NC(=O)C(CCCCN)NC(=O)C(CCCCN)NC(=O)C(CCCCNC(=O)c1ccc(Oc2ccccc2)cc1)NC(=O)c1ccc(Oc2ccccc2)cc1 (stereo not drawn) [MCC_000316] | xxxxx (xxxxx = <0.01) | xxxxx (xxxxx = <0.01) | xxxx (xxxx = 0.01-<0.1)
6 | CCCCCCCCCCCCCC(=O)N[C@@H](CCCCN)C(=O)N[C@@H](CCCCN)C(=O)N[C@@H](CCCCN)C(=O)N[C@@H](CCCCNC(=O)[C@H]1NC(=O)[C@H]2NC(=O)[C@H](NC(=O)[C@@H]3NC(=O)[C@H](CC(N)=O)NC(=O)[C@H](NC(=O)[C@@H](CC(C)C)NC)[C@H](O)c4ccc(c(Cl)c4)Oc4cc3cc(c4O[C@@H]3O[C@H](CO)[C@@H](O)[C@H](O)[C@H]3O[C@H]3C[C@](C)(N)[C@H](O)[C@H](C)O3)Oc3ccc(cc3Cl)[C@H]2O)c2ccc(O)c(c2)-c2c(O)cc(O)cc21)C(=O)NC [MCC_000343] | xxxxx (xxxxx = <0.01) | xxxxx (xxxxx = <0.01) | xxxx (xxxx = 0.01-<0.1)
7 | CCCCCCCCCCCCCC(=O)N[C@@H](CCCCN)C(=O)N[C@@H](CCCCN)C(=O)NCCCNC(=O)[C@H]1NC(=O)[C@H]2NC(=O)[C@H](NC(=O)[C@@H]3NC(=O)[C@H](CC(N)=O)NC(=O)[C@H](NC(=O)[C@@H](CC(C)C)NC)[C@H](O)c4ccc(c(Cl)c4)Oc4cc3cc(c4O[C@@H]3O[C@H](CO)[C@@H](O)[C@H](O)[C@H]3O[C@H]3C[C@](C)(N)[C@H](O)[C@H](C)O3)Oc3ccc(cc3Cl)[C@H]2O)c2ccc(O)c(c2)-c2c(O)cc(O)cc21 [MCC_000345] | xxxxx (xxxxx = <0.01) | xxxxx (xxxxx = <0.01) | xxxx (xxxx = 0.01-<0.1)
8 | CCCCCCCCCCC(=O)NCC(=O)N[C@@H](CCCCN)C(=O)N[C@@H](CCCCN)C(=O)N[C@@H](CCCCN)C(=O)N[C@@H](CCCCNC(=O)[C@H]1NC(=O)[C@H]2NC(=O)[C@H](NC(=O)[C@@H]3NC(=O)[C@H](CC(N)=O)NC(=O)[C@H](NC(=O)[C@@H](CC(C)C)NC)[C@H](O)c4ccc(c(Cl)c4)Oc4cc3cc(c4O[C@@H]3O[C@H](CO)[C@@H](O)[C@H](O)[C@H]3O[C@H]3C[C@](C)(N)[C@H](O)[C@H](C)O3)Oc3ccc(cc3Cl)[C@H]2O)c2ccc(O)c(c2)-c2c(O)cc(O)cc21)C(=O)O [MCC_000346] | xxxx (xxxx = 0.01-<0.1) | xxxx (xxxx = 0.01-<0.1) | x (x = >4)
9 | CCCCCCCCCCCC(=O)N[C@@H](CCCCN)C(=O)N[C@@H](CCCCN)C(=O)N[C@@H](CCCCN)C(=O)N[C@@H](CCCCNC(=O)[C@H]1NC(=O)[C@H]2NC(=O)[C@H](NC(=O)[C@@H]3NC(=O)[C@H](CC(N)=O)NC(=O)[C@H](NC(=O)[C@@H](CC(C)C)NC)[C@H](O)c4ccc(c(Cl)c4)Oc4cc3cc(c4O[C@@H]3O[C@H](CO)[C@@H](O)[C@H](O)[C@H]3O[C@H]3C[C@](C)(N)[C@H](O)[C@H](C)O3)Oc3ccc(cc3Cl)[C@H]2O)c2ccc(O)c(c2)-c2c(O)cc(O)cc21)C(=O)O [MCC_000348] | xxxxx (xxxxx = <0.01) | xxxxx (xxxxx = <0.01) | xxx (xxx = 0.1-<1)
10 | CCCCCCCCCCCCC(=O)N[C@@H](CCCCN)C(=O)N[C@@H](CCCCN)C(=O)N[C@@H](CCCCNC(=O)[C@H]1NC(=O)[C@H]2NC(=O)[C@H](NC(=O)[C@@H]3NC(=O)[C@H](CC(N)=O)NC(=O)[C@H](NC(=O)[C@@H](CC(C)C)NC)[C@H](O)c4ccc(c(Cl)c4)Oc4cc3cc(c4O[C@@H]3O[C@H](CO)[C@@H](O)[C@H](O)[C@H]3O[C@H]3C[C@](C)(N)[C@H](O)[C@H](C)O3)Oc3ccc(cc3Cl)[C@H]2O)c2ccc(O)c(c2)-c2c(O)cc(O)cc21)C(=O)O [MCC_000349] | xxxxx (xxxxx = <0.01) | xxxxx (xxxxx = <0.01) | xxx (xxx = 0.1-<1)
11 | CCCCCCCCCCCCC(=O)N[C@@H](CCCCN)C(=O)N[C@@H](CCCCN)C(=O)N[C@@H](CCCCN)C(=O)N[C@@H](CCCCNC(=O)[C@H]1NC(=O)[C@H]2NC(=O)[C@H](NC(=O)[C@@H]3NC(=O)[C@H](CC(N)=O)NC(=O)[C@H](NC(=O)[C@@H](CC(C)C)NC)[C@H](O)c4ccc(c(Cl)c4)Oc4cc3cc(c4O[C@@H]3O[C@H](CO)[C@@H](O)[C@H](O)[C@H]3O[C@H]3C[C@](C)(N)[C@H](O)[C@H](C)O3)Oc3ccc(cc3Cl)[C@H]2O)c2ccc(O)c(c2)-c2c(O)cc(O)cc21)C(=O)O [MCC_000350] | xxxxx (xxxxx = <0.01) | xxxxx (xxxxx = <0.01) | xxx (xxx = 0.1-<1)
12 | CNC(CC(C)C)C(=O)NC1C(=O)NC(CC(N)=O)C(=O)NC2C(=O)NC3C(=O)NC(C(=O)NC(C(=O)NCCCCC(NC(=O)C(CCCCN)NC(=O)C(CCCCN)NC(=O)CNC(=O)c4ccc(Oc5ccccc5)cc4)C(=O)O)c4cc(O)cc(O)c4-c4cc3ccc4O)C(O)c3ccc(c(Cl)c3)Oc3cc2cc(c3OC2OC(CO)C(O)C(O)C2OC2CC(C)(N)C(O)C(C)O2)Oc2ccc(cc2Cl)C1O (stereo not drawn) [MCC_000381] | xxx (xxx = 0.1-<1) | xx (xx = 1-4) | x (x = >4)
